What was measured:
Miscibility with water = format: physicochemical; conditions: this work
Miscibility with hexane = format: physicochemical; conditions: this work

In the case of `CN(C)C=O` [DMF, N,N‐dimethylformamide], the Water misc. (Miscibility with water) is reported as “yes^[a]” and the Hexane misc. (Miscibility with hexane) is reported as “no^[a]”.

Reference: article PMC7318222, “A Family of Water‐Immiscible, Dipolar Aprotic, Diamide Solvents from Succinic Acid” (Chemsuschem, 2020)
